In patent US8663607B2, “Ferrate(VI)-containing compositions and methods of using ferrate(VI)” (Battelle Memorial Institute, priority 2007, dated 2014):

Columns and labels:
[1] = Stain removal from calcium deficient hydroxyapatite disks (human tooth model), tea stain; details: disk T: 1 mL of 3% hydrogen peroxide + 0.5 g sodium bicarbonate, applied twice, 5 minutes, water soak 45 minutes
Experimental: Tea staining Solution: 200 mL of high-purity deionized (HPDI) water was heated to boiling in a 500-mL beaker. The beaker was removed from heat and 4 Lipton™ tea bags were added. The tea bags were allowed to soak for 5 minutes. The tea bags were pressed with a spatμLa upon removal to remove liquid.
Tea staining Procedure: A calcium-deficient hydroxyapatite (HAP) disk (Clarkson Chromatography Products) was placed into a 50-mL centrifuge tube with 10 mL of tea solution. The centrifuge tube was gently shaken by hand for 15 minutes. The tea solution was decanted and replaced with 10 mL of HPDI water and vortexed for 30 seconds. The water was decanted and replaced with 10 additional mL of HPDI water and vortexed for 30 seconds. The disk was removed with forceps and patted dry with a tissue. The disk was allowed to air dry at room temperature for at least one hour.
Oxidation resistant chelating buffer: 0.25M 1-Hydroxyethylidenediphosphonic acid (etridonic acid) (Dequest® 2010, Thermphos) (HEPA) was pH adjusted by microtitration with 10N NaOH. 1.28 g of 1-Hydroxyethylidenediphosphonic acid was to a 25-mL volumetric flask and brought to volume with HPDI water. The solution was transferred to a 50-mL beaker with a stir bar and pH adjusted using 10.04N NaOH, monitored with a calibrated pH meter. Aliquat 336® (Cognis) (also suitable is Aliquat 134®) (N-methyl-tri-(n-octyl)ammonium chloride), (N-methyl TOA) or “HEPA” chelating pH Buffer: 2.5-μL of N-methyl TOA was added to 5 mL of pH 7 HEPA buffer and sonicated for 1 minute. pH 7 Sodium Dodecyl Sulfate (SDS)/HEPA Buffer: 10 mg of SDS was added to 5 mL of pH 7 HEPA buffer and sonicated for 1 minute. pH 8 SDS/HEPA Buffer: 10 mg of SDS was added to 5 mL of pH 8 HEPA buffer and sonicated for 1 minute.
• A. A tea stained disk was placed into the bowl of the bowl of a watch glass and 100 μL of pH 7 HEPA buffer was pipetted onto the disk surface. 3.7 mg of potassium ferrate(VI) was added to the disk surface and mixed gently. […] The disk was rinsed at 10 minutes with HPDI water. […] 1 mL of pH 7 HEPA buffer was added followed by 9 mL of HPDI water. 9.7 mg of potassium ferrate(VI) was added. The tube was gently hand shaken for 10 minutes. The disk was removed and rinsed with HPDI water. […] 10 mg of potassium ferrate(VI) was added to 1 mL of pH 7 HEPA buffer in a 50 mL centrifuge tube. 9 mL HPDI water was added, and the solution was shaken for a few seconds followed by the addition of a tea stained HAP disk. The disk was removed at 10 minutes and rinsed with HPDI water. […] 1.3 mg of potassium ferrate(VI) added and mixed into the solution.

[2] = Reactivity of ferrate(VI) in nonpolar media; format: physicochemical; details: such as oils, solvents, waxes

| Molecule | L* (lightness/darkness) [1] | a* (blue/red) [1] | appearance of disk after treatment [1] | b* (yellow/green) [1] | reflectance of visible light at 450 nm [1] | reflectance of visible light at 750 nm [1] | ΔE (versus tea stain) [1] | reactivity in nonpolar media [2] |
| --- | --- | --- | --- | --- | --- | --- | --- | --- |
| OO [hydrogen peroxide, reference compound] | 96.9 | 0.4 | Much of the color was removed | 0.3 | 89.892 | 94.030 | 13.44 | – |
| ferrate(VI) | – | – | – | – | – | – | – | unreactive |
